Experiment [1] concerns the target High affinity cGMP-specific 3',5'-cyclic phosphodiesterase 9A (Homo sapiens, UniProt O76083). As to the kind of experiment: 3H-cAMP and 3H-cGMP Scintillation Proximity Assay (PDE9A).
Experiment [2] concerns the target Mitogen-activated protein kinase 9 (Homo sapiens) (UniProt P45984). As to the kind of experiment: MAPK9 SGC Tm panel (DSF). Conditions: for ΔTm: Compound concentration 10.0 uM.
Experiment [3] addresses Homeodomain-interacting protein kinase 2 (Homo sapiens) (UniProt Q9H2X6). The experiment is described as follows: HIPK2 SGC Tm panel (DSF). Conditions: for ΔTm: Compound concentration 10.0 uM.
For experiment [4], the target named is 5-hydroxytryptamine receptor 2B (Homo sapiens) (UniProt P41595). Conditions: Compound concentration 10.0 uM.
Chain of 5-hydroxytryptamine receptor 2B (Homo sapiens) (P41595 whole entry): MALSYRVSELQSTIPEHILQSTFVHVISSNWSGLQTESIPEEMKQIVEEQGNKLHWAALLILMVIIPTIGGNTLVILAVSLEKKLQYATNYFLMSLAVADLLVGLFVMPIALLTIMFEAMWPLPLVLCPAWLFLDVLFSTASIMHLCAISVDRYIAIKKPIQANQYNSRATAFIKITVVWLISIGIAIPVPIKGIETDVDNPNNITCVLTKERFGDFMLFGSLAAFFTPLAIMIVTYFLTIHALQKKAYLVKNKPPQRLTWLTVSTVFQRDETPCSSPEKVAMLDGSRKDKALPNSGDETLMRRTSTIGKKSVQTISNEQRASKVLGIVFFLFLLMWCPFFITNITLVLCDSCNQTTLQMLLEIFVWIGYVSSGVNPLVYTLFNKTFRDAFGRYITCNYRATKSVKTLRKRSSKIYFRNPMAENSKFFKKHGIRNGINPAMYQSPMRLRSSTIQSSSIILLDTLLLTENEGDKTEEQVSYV
Experiment [5] concerns the target T1, Peripheral plasma membrane protein CASK (Homo sapiens) (UniProt O14936).
T1 sequence (whole entry): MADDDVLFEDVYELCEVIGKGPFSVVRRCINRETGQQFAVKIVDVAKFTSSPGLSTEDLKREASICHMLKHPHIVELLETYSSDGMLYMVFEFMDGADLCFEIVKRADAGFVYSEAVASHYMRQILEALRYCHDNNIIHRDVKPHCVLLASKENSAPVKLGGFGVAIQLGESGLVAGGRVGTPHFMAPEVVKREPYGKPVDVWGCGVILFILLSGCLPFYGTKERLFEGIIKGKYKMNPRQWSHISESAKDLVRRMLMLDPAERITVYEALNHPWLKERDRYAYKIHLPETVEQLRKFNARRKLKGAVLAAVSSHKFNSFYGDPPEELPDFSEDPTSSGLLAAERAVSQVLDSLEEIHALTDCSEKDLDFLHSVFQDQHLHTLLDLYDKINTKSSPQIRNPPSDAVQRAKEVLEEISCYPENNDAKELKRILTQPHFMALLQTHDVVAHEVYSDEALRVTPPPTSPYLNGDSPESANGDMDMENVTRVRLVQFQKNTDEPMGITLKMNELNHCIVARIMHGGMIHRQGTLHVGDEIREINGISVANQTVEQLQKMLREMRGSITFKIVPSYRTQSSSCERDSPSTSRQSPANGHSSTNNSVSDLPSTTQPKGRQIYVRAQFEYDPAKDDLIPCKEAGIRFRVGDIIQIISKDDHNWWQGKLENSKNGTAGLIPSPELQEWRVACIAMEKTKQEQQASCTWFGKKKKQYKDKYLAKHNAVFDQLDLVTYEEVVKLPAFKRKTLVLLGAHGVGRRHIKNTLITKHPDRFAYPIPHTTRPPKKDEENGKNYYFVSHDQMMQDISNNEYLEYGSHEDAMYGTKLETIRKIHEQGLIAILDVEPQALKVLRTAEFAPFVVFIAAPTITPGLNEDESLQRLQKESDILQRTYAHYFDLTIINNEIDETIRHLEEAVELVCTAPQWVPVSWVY
As to the kind of experiment: CASK SGC Tm panel (DSF). Conditions: for ΔTm: Compound concentration 10.0 uM.

The target of experiment [6] is Sodium-dependent dopamine transporter (Homo sapiens) (UniProt Q01959). Conditions: Compound concentration 10.0 uM.
Chain of Sodium-dependent dopamine transporter (Homo sapiens) (Q01959 whole entry): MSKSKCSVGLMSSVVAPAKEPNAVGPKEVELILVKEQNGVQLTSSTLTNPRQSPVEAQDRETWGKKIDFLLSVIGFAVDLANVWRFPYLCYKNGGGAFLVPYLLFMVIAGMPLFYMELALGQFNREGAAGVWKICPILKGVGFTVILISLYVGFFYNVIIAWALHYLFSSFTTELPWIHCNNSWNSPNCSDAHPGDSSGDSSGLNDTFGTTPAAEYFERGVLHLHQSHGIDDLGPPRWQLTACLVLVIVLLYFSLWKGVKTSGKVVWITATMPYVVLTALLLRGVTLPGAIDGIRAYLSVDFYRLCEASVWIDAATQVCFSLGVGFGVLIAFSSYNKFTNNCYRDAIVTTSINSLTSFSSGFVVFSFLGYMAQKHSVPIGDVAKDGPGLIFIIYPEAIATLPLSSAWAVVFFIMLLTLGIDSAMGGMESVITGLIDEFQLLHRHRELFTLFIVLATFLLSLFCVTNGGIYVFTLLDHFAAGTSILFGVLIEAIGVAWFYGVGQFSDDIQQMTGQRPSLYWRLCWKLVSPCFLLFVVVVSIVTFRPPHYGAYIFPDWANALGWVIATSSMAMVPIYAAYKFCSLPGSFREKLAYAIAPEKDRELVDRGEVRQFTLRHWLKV
Experiment [7] addresses T2, Serine/threonine-protein kinase 17A (Homo sapiens) (UniProt Q9UEE5).
T2 sequence (whole entry): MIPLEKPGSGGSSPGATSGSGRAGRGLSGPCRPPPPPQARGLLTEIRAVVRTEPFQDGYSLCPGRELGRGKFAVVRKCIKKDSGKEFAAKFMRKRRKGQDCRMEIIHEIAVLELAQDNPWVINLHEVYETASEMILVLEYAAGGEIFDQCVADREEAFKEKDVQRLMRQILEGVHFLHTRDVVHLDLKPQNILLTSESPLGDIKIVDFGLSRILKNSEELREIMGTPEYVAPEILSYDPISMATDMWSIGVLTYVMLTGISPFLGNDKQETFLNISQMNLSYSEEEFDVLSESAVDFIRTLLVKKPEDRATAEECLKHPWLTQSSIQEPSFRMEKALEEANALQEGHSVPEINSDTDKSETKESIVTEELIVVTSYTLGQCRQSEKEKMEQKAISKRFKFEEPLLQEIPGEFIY
The experiment is described as follows: STK17A SGC Tm panel (DSF). Conditions: for ΔTm: Compound concentration 10.0 uM.

The target of experiment [8] is Fibroblast growth factor receptor 1 (Homo sapiens) (UniProt P11362). The experiment is described as follows: FGFR1 SGC Tm panel (DSF). Conditions: for ΔTm: Compound concentration 10.0 uM.
Chain of Fibroblast growth factor receptor 1 (Homo sapiens) (P11362 22-822 limits assumed): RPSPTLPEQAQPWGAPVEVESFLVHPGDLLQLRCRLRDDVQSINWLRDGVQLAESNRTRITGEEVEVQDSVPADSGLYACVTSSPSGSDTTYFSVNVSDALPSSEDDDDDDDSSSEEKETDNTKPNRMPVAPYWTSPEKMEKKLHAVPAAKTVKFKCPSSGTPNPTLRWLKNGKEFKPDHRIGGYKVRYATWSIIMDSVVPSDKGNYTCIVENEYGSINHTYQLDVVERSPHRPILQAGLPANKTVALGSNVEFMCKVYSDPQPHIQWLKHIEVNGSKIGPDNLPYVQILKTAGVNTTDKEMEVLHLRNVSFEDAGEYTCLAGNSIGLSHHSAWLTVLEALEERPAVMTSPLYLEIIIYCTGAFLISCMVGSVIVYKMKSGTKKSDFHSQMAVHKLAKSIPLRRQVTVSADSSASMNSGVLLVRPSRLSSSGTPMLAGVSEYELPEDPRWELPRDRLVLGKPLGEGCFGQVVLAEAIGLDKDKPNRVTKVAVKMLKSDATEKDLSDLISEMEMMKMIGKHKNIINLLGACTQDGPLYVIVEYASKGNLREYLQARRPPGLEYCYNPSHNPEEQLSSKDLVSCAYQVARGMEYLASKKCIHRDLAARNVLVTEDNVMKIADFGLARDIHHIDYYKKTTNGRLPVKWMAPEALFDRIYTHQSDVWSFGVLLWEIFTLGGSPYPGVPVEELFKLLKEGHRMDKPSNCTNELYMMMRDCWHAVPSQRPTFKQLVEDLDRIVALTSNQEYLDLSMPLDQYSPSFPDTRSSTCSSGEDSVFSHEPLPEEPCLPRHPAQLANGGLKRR
Experiment [9] addresses Calcium/calmodulin-dependent protein kinase type 1G (Homo sapiens) (UniProt Q96NX5). The experiment is described as follows: CAMK1G SGC Tm panel (DSF). Conditions: for ΔTm: Compound concentration 10.0 uM.
Experiment [10] addresses 5-hydroxytryptamine receptor 1D (Homo sapiens) (UniProt P28221). Conditions: Compound concentration 10.0 uM.
Experiment [11] addresses Beta-3 adrenergic receptor (Homo sapiens) (UniProt P13945). Conditions: Compound concentration 10.0 uM.
Experiment [12] addresses T3, Bone morphogenetic protein receptor type-2 (Homo sapiens) (UniProt Q13873).
T3 sequence (whole entry): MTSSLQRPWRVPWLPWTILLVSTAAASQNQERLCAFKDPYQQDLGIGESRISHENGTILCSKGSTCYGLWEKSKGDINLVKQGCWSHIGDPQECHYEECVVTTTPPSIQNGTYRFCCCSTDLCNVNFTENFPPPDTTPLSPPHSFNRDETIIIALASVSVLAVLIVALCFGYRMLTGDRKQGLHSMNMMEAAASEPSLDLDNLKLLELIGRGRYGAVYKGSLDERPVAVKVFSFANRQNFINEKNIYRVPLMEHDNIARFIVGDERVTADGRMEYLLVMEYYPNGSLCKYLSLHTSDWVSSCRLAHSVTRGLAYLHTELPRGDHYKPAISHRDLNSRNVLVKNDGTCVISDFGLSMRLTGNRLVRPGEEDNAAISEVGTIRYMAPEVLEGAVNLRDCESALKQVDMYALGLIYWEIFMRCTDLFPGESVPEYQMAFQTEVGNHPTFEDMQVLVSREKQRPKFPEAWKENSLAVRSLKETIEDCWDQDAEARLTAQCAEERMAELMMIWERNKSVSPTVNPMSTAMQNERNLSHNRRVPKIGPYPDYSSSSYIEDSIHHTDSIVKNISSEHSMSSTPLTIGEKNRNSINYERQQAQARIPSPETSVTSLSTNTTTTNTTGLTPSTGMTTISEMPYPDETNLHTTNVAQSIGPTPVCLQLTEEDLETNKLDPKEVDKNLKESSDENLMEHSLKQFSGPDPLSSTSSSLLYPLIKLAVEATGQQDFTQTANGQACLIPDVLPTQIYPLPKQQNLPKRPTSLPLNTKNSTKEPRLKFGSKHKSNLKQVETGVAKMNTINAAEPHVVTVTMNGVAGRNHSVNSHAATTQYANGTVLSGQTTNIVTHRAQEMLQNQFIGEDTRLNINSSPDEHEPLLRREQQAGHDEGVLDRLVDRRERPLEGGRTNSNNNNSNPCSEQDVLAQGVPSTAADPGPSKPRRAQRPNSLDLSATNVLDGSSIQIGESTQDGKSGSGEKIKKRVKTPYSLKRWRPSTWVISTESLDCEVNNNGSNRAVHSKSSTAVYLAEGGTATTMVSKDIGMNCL
As to the kind of experiment: BMPR2 SGC Tm panel (DSF). Conditions: for ΔTm: Compound concentration 10.0 uM.

The source made the active and inactive calls. The calls are words filed in the database; no cut-off is given here.

Chain of Homeodomain-interacting protein kinase 2 (Homo sapiens) (Q9H2X6 whole entry, looked up): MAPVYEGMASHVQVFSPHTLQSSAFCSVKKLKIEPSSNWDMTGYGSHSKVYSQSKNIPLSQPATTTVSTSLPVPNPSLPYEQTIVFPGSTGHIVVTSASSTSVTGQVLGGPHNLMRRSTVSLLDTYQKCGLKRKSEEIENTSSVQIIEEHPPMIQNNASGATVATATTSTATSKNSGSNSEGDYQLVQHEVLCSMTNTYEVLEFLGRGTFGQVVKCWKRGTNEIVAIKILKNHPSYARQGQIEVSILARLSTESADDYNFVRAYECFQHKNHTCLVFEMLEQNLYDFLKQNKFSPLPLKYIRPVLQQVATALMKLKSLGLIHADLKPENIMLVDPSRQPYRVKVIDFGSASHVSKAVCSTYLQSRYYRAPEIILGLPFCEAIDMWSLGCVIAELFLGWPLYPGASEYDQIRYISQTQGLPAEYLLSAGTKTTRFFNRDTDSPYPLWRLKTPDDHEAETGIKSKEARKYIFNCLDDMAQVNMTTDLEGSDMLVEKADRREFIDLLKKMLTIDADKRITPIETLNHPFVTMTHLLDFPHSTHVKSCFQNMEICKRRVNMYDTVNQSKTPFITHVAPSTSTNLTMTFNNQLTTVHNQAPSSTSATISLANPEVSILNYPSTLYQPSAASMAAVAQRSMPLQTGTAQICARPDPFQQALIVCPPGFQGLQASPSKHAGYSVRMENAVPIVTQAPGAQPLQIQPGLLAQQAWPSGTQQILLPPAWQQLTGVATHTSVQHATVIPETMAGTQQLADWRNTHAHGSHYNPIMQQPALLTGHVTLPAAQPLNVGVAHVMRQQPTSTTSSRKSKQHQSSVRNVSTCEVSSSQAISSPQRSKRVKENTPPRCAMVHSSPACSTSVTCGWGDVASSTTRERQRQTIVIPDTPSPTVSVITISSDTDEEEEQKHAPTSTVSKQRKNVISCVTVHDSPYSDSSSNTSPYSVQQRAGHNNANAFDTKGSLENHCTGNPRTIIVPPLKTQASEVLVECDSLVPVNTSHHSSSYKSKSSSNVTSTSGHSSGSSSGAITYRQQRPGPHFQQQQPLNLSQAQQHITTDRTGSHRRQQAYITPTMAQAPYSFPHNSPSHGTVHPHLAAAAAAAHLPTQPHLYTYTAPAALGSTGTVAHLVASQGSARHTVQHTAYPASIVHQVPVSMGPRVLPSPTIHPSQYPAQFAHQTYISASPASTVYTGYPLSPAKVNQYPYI
Chain of 5-hydroxytryptamine receptor 1D (Homo sapiens) (P28221 whole entry): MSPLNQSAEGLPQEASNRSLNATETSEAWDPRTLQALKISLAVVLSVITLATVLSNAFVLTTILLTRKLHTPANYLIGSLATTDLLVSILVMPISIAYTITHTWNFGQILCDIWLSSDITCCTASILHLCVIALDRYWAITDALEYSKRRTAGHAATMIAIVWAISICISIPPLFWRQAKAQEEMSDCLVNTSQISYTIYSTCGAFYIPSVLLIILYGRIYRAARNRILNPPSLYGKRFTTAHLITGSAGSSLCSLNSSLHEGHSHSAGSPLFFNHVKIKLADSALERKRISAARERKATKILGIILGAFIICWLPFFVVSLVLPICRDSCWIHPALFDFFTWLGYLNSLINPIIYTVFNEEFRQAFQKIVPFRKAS
Chain of Beta-3 adrenergic receptor (Homo sapiens) (P13945 whole entry, looked up): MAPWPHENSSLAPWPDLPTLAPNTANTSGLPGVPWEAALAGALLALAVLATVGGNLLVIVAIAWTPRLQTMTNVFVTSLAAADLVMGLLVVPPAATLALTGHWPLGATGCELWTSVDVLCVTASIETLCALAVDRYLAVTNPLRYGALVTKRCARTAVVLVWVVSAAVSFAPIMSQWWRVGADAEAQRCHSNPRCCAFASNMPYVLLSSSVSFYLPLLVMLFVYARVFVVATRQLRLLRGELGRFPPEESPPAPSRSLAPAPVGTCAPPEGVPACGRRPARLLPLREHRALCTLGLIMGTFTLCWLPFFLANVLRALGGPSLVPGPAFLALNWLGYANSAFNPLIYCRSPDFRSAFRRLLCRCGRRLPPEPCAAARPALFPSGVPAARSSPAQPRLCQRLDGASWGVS
Chain of Calcium/calmodulin-dependent protein kinase type 1G (Homo sapiens) (Q96NX5 whole entry): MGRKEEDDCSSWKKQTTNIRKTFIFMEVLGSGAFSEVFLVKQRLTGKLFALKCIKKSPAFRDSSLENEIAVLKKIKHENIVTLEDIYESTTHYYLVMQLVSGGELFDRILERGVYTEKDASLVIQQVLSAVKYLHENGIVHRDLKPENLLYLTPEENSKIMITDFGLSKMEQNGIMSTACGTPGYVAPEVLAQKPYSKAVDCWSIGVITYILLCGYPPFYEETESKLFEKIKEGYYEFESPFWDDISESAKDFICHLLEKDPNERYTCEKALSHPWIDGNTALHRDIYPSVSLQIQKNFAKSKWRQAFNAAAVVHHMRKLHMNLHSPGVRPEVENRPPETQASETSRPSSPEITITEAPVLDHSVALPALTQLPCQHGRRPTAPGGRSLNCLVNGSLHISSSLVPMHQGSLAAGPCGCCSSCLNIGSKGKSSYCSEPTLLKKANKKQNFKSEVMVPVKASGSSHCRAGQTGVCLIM
Chain of Mitogen-activated protein kinase 9 (Homo sapiens) (P45984 whole entry, looked up): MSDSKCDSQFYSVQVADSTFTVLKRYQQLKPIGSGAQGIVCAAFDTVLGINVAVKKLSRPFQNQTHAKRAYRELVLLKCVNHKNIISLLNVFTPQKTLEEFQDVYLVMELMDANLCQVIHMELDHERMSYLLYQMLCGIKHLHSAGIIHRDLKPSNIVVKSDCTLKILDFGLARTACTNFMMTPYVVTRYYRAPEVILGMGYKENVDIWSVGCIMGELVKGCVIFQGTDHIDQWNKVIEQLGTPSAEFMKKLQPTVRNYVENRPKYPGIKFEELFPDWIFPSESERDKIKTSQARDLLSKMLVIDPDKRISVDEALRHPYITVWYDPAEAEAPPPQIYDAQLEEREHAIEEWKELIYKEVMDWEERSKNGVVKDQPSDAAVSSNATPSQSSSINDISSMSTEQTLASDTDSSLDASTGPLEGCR

`CCC[C@H]1CNCc2c1[nH]c(=O)c(C#N)c2N1CCC2(CC1)CC2`: the IC50 in experiment [1] was 0.015 µM (active). Further, the delta Tm Staurosporine positive control in experiment [2] is 3.03; in experiment [3], 4.23; in experiment [5] it was 4.28; in experiment [7], 11.8; in [8], 5.57; in experiment [9], 11.2. The compound also registered a delta Tm Staurosporine positive control in experiment [12] of 3.02. The ΔTm in experiment [2] is -0.605; in [3] it was -0.31; in experiment [5], -0.242; in [7] it was -1.05; in experiment [8], -0.133; in [9] it was -0.348. Besides, the ΔTm in [12] was 0.146. For the same compound, the inhibition in experiment [4] was 44.9%; in experiment [6] it was 3.42%; in experiment [10], 25%; in [11], 3.76%.

For the compound `CCC[C@@H]1CNCc2c1[nH]c(=O)c(C#N)c2N1CCC2(CC1)CC2`, the IC50 in [1] is reported as > 10 µM (not active). The delta Tm Staurosporine positive control turned out to be 3.03 in [2]; 4.23 in experiment [3]; 4.28 in experiment [5]; 11.8 in experiment [7]; 5.57 in experiment [8]; 11.2 in experiment [9]. In [12], this compound came in with a delta Tm Staurosporine positive control of 3.02. The ΔTm in experiment [2] was -0.0844; in experiment [3], -0.297; in experiment [5], -0.0745; in [7], -1.01; in experiment [8] it was -0.198; in experiment [9], -0.416. Further, the ΔTm in experiment [12] was 0.0735. For the same compound, the inhibition was 33% in experiment [4], 7.47% in experiment [6], 35% in [10] and -3.17% in experiment [11].
